Publication PMC12731105, “Design and Synthesis of New Quinoxaline Analogs to Regenerate Sensory Auditory Hair Cells” (Cells, 2025)
≈ marks a conversion by molar mass, not a printed value.

Legend:
Kinetic solubility assay = type: physicochemical; settings: for solubility at 6 h: physiological buffer, pH 7.4, kinetic solubility, physiological buffer pH 7.4, room temperature, six hours
Experimental: A stock solution of each active compound in DMSO (10 mg/mL) was prepared and diluted into physiological buffer (pH 7.4) to a concentration of 100 µg/mL, and the mixture was left at room temperature for six hours. After six hours, the sample was centrifuged, and the supernatant was diluted with a methanol-water solution containing an internal standard (IS). The calibration curve was established using seven-point standards prepared by serial dilution in a range that the unknown sample signal would likely fall in and precisely simulating the sample preparation process. The standards and samples were quantified using LC-MS/MS, and unknown concentrations were back-calculated from the calibration curve.

[1] = test system: zebrafish lateral line neuromast HCs; test: Zebrafish neuromast morphology scoring (otoferlin/GFP immunofluorescence); type: in vivo, zebrafish (Danio rerio); settings: 5-dpf zebrafish, 24 h; for Neuromast morphology scores vs control: 50–300 μg/mL in E3 medium, Kruskal–Wallis, p > 0.05
Experimental: The GFP (Tg(brn3c: GFP) zebrafish larvae expressing HC membrane-bound GFP [19] were used to evaluate the effect of Qx-294 and Qx-301 on HCs and SCs of the lateral line neuromasts. Healthy 5-dpf zebrafish, maintained at 28.5 °C, were randomly distributed into Petri dishes at a density of 50 embryos/larvae per 100 mm^2 and exposed to various concentrations of Qx-294 and Qx-301 (50, 100, 150, 200, 250, and 300 μg/mL) diluted in E3 (5 mM NaCl, 0.17 mM KCl, 0.33 mM CaCl2 and 0.33 MgSO4, pH 7.2) medium for 24 h. Following treatment, the animals were transferred to E3 media for 30 min to recover, then cryoanesthetized and fixed with 4% paraformaldehyde (PFA) overnight at 4 °C. The following neuromasts were analyzed in our studies: IO4 (infraorbital 4), OP1 (opercular 1), M2 (mandibular 2), O1 (otic 1), O2, and MI2 (middle 2). An arbitrary scoring protocol was used to rank the morphology of each neuromast after treatment as follows: 1 (normal rosette-like shape, HCs look normal, HC bundles are properly arranged), 2 (normal rosette-like shape, a few HCs appear to be missing, but HC bundles are properly arranged), 3 (normal rosette-like morphology but several HCs are gone and HC bundles look disturbed), 4 (the rosette-like shape is lost in certain areas, few HCs, and few disrupted HC bundles), and 5 (no rosette-like shape, one or two dispersed HCs and no HC bundles). At least 25 animals per treatment were assessed, for a total of 200 across the entire study. The assessment was performed in a double-blind and unbiased manner. Scores were expressed as percentages of the total of neuromasts analyzed per treatment.
(§1) Cochlear dissection in mice and immunofluorescence experiments on zebrafish neuromasts and mouse cochleae were performed as previously described. The antibody and labeling kits used in this study included Otoferlin (Developmental Studies Hybridoma Bank, Iowa City, IA, USA, HCS-1), GFP (Novus Biologicals, NB100-1614), and rabbit anti-myosin VIIa (M7a) (Thermo Scientific, Waltham, MA, USA, PA1-936). Species-specific Alexa Fluor-conjugated secondary antibodies were used for detection. Phalloidin conjugated to Alexa 488 (Thermo Scientific, Waltham, MA, USA, O7466) and DAPI were used for labeling stereocilia and the nucleus, respectively.

[2] = test system: mechanotransduction channel activity of neuromast HCs; test: FM1-43 uptake in zebrafish neuromasts; type: in vivo, zebrafish (Danio rerio); settings: 300 μM, 7 h, with or without 1 h recovery
Experimental: The styryl pyridinium dye FM1-43 provides an optical measure of mechanotransduction channel function and, therefore, was used as a proxy for the viability of the neuromast cells treated with QX-294 or QX-301, as well as indirect information on the functional capability of newly formed HCs. FM1-43FX (Thermo Scientific, Waltham, MA, USA) uptake experiments in zebrafish were performed as previously described. Zebrafish were incubated with E3 alone (control) or in the presence of Qx-294 or Qx-301, both at 300 μM, for 7 h and then immediately exposed to 3 μM FM1-43FX for 40 s. Alternatively, animals were transferred to a fresh E3 solution for 1 h and then exposed to the dye. For mouse treatment, 24, 48, and 72 h after animals were injected with […] Qx-294 or Qx-301, their cochleae were dissected, transiently exposed to FM1-43 FX dye (1 mg/mL) for 45 s, and then fixed in 4% PFA. All animals were P28 at completion of the treatment. Fluorescence incorporated was quantified according to [19] using ImageJ (ImageJ2 1.54r).

mouse organ of Corti HCs = test: M7a immunolabeling and HC counts in the mouse organ of Corti; type: in vivo; settings: mice, single IP 300 mg/kg; for OHC and IHC numbers vs control, 48–72 h: p < 0.05; for Supernumerary M7a-positive cells vs control, 24 h: 24 h post-treatment; for HC numbers in the apex: apical turn
Experimental: C57BL/6J male and female mice between postnatal day 24 and 30 P-24-30) were randomized into control and experimental groups (9 mice per group per compound), with each experimental group receiving a single intraperitoneal (IP) injection of Qx-294 or Qx-301 at a dose of 300 mg/kg body weight, dissolved in dimethyl sulfoxide (DMSO). Controls consisted of treatment with DMSO alone (vehicle). A total of 90 adult wild-type C57/BL6 mice were used in this study. Based on the analysis, animals were examined at various times following treatment as described below.
as §1
Cell numbers in mouse cochleae or fish, as well as fish neuromast morphologies, were evaluated in 25 zebrafish per drug and treatment group across three experimental runs. For mouse analyses, 18 cochleae (from 9 mice) per treatment and three experimental repetitions were examined. Images were analyzed at 200X magnification, obtained from different neuromasts and cochlear regions (apex, middle, and base). HCs were quantified in the mouse OC by counting M7a-positive cells, with HC identity further confirmed by phalloidin-labeled stereocilia. Apoptosis and cell proliferation events, on the other hand, were quantified by counting TUNEL- and EdU-positive cells, respectively. Counts were obtained from three randomly selected microscopic fields for each cochlear region, covering at least 1200 μm in total. The number of HCs (IHCs and OHCs) is expressed as units per 200 μm. Cell counting was performed in a double-blind and unbiased manner. A laboratory member conducted the experiments, while another person, who was unaware of the treatment groups to which the cochlea belonged, performed the cell counts. IHCs and OHCs were counted on reconstructed confocal stacks using NIH ImageJ v1.8.0 software. The presence of an HC was defined as an intact, spherical nucleus located in the basal half of an M7a-positive cell. The same person who performed the initial counts recounted a select group of cochleae to determine an intra-rater reliability measure. We used intra-class correlations (ICC) to assess the reliability of the data sets. Reliability statistics were calculated in SPSS v22.0. We used an intra-class correlation coefficient of ≥0.7 to measure strong absolute agreement between the two sets of HC counts being compared. Statistical comparisons between animal groups and treatments were performed using Two-Way ANOVA or Kruskal–Wallis test with post hoc Bonferroni correction for multiple comparisons. Values are presented as ± standard deviation (SD) of the mean. Fluorescence incorporation following treatment with FM1-43 was quantified according to [19] using ImageJ. An unpaired T-test was used to compare the means between treatment groups. p < 0.05 was considered significant. Qx treatments were compared to vehicle-only (control) animals.

With `c1ccc2nc(N3CCOCC3)cnc2c1` [Qx-294, 2-(morpholine)-quinoxaline] the “Aqueous solubility” value (Kinetic solubility assay) was “low aqueous solubility”, the solubility at 6 h (Kinetic solubility assay) was about 0.551 µg/mL (≈ 2.56 µM) and the “Neuromast morphology scores vs control” value [1] was “did not differ significantly from those of the control group”. For the same compound, the “Neuromast morphology at 50 and 150 μg/mL” value ([1]; not statistically significant) was “some HC loss was observed”, the “FM1-43 fluorescence intensity in neuromasts vs control” value [2] was “no significant differences” and the “OHC and IHC numbers vs control, 48–72 h” value (mouse organ of Corti HCs) was “significant increases in both OHC and IHC numbers”. The “Supernumerary M7a-positive cells vs control, 24 h” value (mouse organ of Corti HCs) was “not statistically significant” and the “HC numbers in the apex” value (mouse organ of Corti HCs) was “variable, non-significant trend towards more HCs”.

For `c1ccc2nc(N3CCCC3)cnc2c1` [Qx-301, 2-(pyrrolidine)-quinoxaline], the “Aqueous solubility” value (Kinetic solubility assay) was “low aqueous solubility”, the solubility at 6 h (Kinetic solubility assay) was 0.365 ± 0.028 µg/mL (≈ 1.83 µM) and the “Neuromast morphology scores vs control” value [1] was “did not differ significantly from those of the control group”. The “Neuromast morphology at the highest concentrations vs control” value ([1]; not statistically significant) was “improved morphology”, the “FM1-43 fluorescence intensity in neuromasts vs control” value [2] was “no significant differences” and the “OHC and IHC numbers vs control, 48–72 h” value (mouse organ of Corti HCs) was “significant increases in both OHC and IHC numbers”. The “Supernumerary M7a-positive cells vs control, 24 h” value (mouse organ of Corti HCs) was “not statistically significant” and the “HC numbers in the apex” value (mouse organ of Corti HCs) was “consistent, significant increase in apical HCs”.
